This passage reports VMAX results from patent US4318989A, “Starch-degrading enzymes from Cladosporium resinae” (Lifeline Products, Inc., priority 1980, dated 1982).

Test [1] relates to Aspergillus niger glucoamylase II. Kind of test: Kinetic constants of glucoamylases (release of glucose from substrate). To be noted: Table VI. It is filed as biochemical. As for the experimental part: In assaying the rate of release of glucose from starch, pullulan or maltose, enzyme solution (culture solution) (0.1 ml) undiluted or diluted up to 100-fold, was incubated with substrate solution (0.5 ml) for 5 to 20 minutes at 37° C. […]. This reaction was terminated and the color developed by adding 50% HCl solution (2 ml). Substrates employed were pullulan, maltose and J. T. Baker Starch (Lintner) Soluble all at 5 mg/ml concentration and in 0.1 M sodium acetate buffer pH 4.3. α-amylase was assayed by the method described in Marshall, J.J., et al, Clinica Chemica Acta, 76, 277 (1977).
The relative rates of hydrolysis of several glucooligosaccharides and polysaccharides are shown in Table V based upon data shown in FIG. 6-11. Results are compared to those obtained using Aspergillus niger glucoamylase II. […] Table VI provides the kinetic constants of the Cladosporium resinae glucoamylases and Asperigillus niger glucoamylase.

The test system of test [2] is Cladosporium resinae glucoamylase S. The test is described as above. The class given is biochemical, Cladosporium resinae (ATCC No. 20495). To be noted: Table VI.
Procedure: In assaying the rate of release of glucose from starch, pullulan or maltose, enzyme solution (culture solution) (0.1 ml) undiluted or diluted up to 100-fold, was incubated with substrate solution (0.5 ml) for 5 to 20 minutes at 37° C. for 1 hour. This reaction was terminated and the color developed by adding 50% HCl solution (2 ml). Substrates employed were pullulan, maltose and J. T. Baker Starch (Lintner) Soluble all at 5 mg/ml concentration and in 0.1 M sodium acetate buffer pH 4.3. α-amylase was assayed by the method described in Marshall, J.J., et al, Clinica Chemica Acta, 76, 277 (1977).

As for `OC[C@H]1O[C@H](O[C@H]2[C@H](O)[C@@H](O)C(O)O[C@@H]2CO)[C@H](O)[C@@H](O)[C@@H]1O` (mixture of isomers) [Maltose], the values for the VMAX in test [1] and in test [2] were 4.8 μmoles glucose released per mi and 2.9 μmoles glucose released per mi, respectively.
